Experimental data from ChEMBL document CHEMBL5214996, “Design, Synthesis, and Pharmacological Evaluation of Second-Generation Soluble Adenylyl Cyclase (sAC, ADCY10) Inhibitors with Slow Dissociation Rates” (J Med Chem, 2022).
In brackets after ≈: the same amount, converted by molar mass.

Tests used:
[1] = target: Adenylate cyclase type 10 (Rattus norvegicus, UniProt Q9Z286); assay: Inhibition of rat ADCY10 overexpressed […] assessed as IBMX stimulated cAMP accumulation preincubated for 10 mins followed by IBMX stimulation and measured after 5 mins by ELISA; assay type: cell-based, 4-4 cell
[2] = target: T1, Adenylate cyclase type 10 (Homo sapiens, UniProt Q96PN6)
[3] = AUC(0 to 24 hrs) in CD-1 mouse at 2 mg/kg,iv and measured upto 24 hrs by LC-MS analysis; assay type: ADME, organism-based; set-up: dose 2 mg/kg, time < 24 hrs, route iv; conditions: in vivo
[4] = Cmax in CD-1 mouse at 2 mg/kg,iv and measured upto 24 hrs by LC-MS analysis; assay type: ADME, organism-based; set-up: time < 24 hrs, dose 2 mg/kg, route iv; conditions: in vivo
[5] = Half life in CD-1 mouse at 2 mg/kg,iv and measured upto 24 hrs by LC-MS analysis; assay type: ADME, organism-based; conditions: in vivo
[6] = AUC(0 to 24 hrs) in CD-1 mouse at 10 mg/kg,po and measured upto 24 hrs by LC-MS analysis; assay type: ADME, organism-based; set-up: time < 24 hrs, dose 10 mg/kg, route po; conditions: in vivo
[7] = Cmax in CD-1 mouse at 10 mg/kg,po and measured upto 24 hrs by LC-MS analysis; assay type: ADME, organism-based; set-up: dose 10 mg/kg, time < 24 hrs, route po; conditions: in vivo
[8] = Tmax in CD-1 mouse at 10 mg/kg,po and measured upto 24 hrs by LC-MS analysis; assay type: ADME, organism-based; conditions: in vivo
[9] = Oral bioavailability in CD-1 mouse at 10 mg/kg and measured upto 24 hrs by LC-MS analysis; assay type: ADME, organism-based; conditions: in vivo
[10] = AUC(0 to 24 hrs) in CD-1 mouse at 50 mg/kg,po and measured upto 24 hrs by LC-MS analysis; assay type: ADME, organism-based; set-up: time < 24 hrs, dose 50 mg/kg, route po; conditions: in vivo
[11] = Cmax in CD-1 mouse at 50 mg/kg,po and measured upto 24 hrs by LC-MS analysis; assay type: ADME, organism-based; set-up: time < 24 hrs, dose 50 mg/kg, route po; conditions: in vivo
[12] = Tmax in CD-1 mouse at 50 mg/kg,po and measured upto 24 hrs by LC-MS analysis; assay type: ADME, organism-based; conditions: in vivo
[13] = Permeability of compound at pH 7.4 at 10 uM incubated for 3 hrs by PAMPA based LC/MS/MS analysis; assay type: ADME; conditions: pH 7.4, 3 h
[14] = 1-Octanol/water partition coefficient, logD of the compound at pH 7.4 by chromatographic analysis; assay type: physicochemical
[15] = Kinetic solubility of compound by UV spectroscopy analysis; assay type: physicochemical; conditions: read-out: Kinetic_solubility
[16] = Cytotoxicity against […] at <20 uM; assay type: toxicity, cell-based; conditions: 4-4 cell
[17] = target: T1, Adenylate cyclase type 10; remark: listed apart in the source
Description: Binding affinity to human recombinant His-tagged ADCY10 assessed as dissociation constant and measured for 600 sec by SPR analysis

Adenylate cyclase type 10 (Rattus norvegicus, UniProt Q9Z286), sequence (Q9Z286 whole entry): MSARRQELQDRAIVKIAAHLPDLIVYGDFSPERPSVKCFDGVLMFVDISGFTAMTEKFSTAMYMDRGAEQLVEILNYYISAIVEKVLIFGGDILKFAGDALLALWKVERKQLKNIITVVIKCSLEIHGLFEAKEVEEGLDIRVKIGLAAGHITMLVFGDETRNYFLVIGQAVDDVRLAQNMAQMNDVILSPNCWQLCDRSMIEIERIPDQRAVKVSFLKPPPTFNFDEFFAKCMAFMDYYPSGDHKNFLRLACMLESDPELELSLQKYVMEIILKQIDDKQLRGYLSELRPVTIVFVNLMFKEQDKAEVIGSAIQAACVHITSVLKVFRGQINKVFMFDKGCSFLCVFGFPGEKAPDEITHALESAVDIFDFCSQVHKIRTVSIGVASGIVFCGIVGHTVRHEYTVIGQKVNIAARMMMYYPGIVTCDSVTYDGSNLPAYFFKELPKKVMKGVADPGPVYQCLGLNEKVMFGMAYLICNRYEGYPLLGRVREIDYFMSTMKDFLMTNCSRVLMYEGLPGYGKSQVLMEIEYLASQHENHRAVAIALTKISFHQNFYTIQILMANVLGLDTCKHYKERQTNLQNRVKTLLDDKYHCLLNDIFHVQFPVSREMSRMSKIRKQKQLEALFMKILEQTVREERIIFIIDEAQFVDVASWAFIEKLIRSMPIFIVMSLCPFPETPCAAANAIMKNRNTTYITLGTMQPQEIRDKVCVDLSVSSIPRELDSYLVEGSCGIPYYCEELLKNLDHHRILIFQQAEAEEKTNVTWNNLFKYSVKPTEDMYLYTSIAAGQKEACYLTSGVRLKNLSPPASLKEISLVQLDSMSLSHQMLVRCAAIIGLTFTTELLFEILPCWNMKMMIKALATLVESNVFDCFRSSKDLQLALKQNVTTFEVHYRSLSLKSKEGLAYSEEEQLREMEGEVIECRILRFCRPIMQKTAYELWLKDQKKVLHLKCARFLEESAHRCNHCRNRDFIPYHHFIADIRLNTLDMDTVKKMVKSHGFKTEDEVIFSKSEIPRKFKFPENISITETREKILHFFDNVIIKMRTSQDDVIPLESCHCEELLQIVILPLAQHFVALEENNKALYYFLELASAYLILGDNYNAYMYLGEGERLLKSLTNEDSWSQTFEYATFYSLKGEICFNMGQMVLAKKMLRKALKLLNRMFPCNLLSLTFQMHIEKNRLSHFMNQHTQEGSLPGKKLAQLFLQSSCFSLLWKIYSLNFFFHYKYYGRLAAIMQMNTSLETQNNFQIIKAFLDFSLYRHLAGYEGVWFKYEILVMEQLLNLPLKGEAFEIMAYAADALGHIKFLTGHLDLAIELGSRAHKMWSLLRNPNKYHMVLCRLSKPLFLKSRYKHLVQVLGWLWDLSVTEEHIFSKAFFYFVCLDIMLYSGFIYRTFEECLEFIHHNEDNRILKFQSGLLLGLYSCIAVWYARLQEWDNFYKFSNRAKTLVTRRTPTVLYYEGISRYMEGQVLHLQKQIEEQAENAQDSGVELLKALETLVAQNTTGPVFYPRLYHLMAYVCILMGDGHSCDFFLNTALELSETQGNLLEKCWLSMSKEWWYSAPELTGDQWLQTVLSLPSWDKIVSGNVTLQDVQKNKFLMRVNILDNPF
T1 sequence (Q96PN6 whole entry): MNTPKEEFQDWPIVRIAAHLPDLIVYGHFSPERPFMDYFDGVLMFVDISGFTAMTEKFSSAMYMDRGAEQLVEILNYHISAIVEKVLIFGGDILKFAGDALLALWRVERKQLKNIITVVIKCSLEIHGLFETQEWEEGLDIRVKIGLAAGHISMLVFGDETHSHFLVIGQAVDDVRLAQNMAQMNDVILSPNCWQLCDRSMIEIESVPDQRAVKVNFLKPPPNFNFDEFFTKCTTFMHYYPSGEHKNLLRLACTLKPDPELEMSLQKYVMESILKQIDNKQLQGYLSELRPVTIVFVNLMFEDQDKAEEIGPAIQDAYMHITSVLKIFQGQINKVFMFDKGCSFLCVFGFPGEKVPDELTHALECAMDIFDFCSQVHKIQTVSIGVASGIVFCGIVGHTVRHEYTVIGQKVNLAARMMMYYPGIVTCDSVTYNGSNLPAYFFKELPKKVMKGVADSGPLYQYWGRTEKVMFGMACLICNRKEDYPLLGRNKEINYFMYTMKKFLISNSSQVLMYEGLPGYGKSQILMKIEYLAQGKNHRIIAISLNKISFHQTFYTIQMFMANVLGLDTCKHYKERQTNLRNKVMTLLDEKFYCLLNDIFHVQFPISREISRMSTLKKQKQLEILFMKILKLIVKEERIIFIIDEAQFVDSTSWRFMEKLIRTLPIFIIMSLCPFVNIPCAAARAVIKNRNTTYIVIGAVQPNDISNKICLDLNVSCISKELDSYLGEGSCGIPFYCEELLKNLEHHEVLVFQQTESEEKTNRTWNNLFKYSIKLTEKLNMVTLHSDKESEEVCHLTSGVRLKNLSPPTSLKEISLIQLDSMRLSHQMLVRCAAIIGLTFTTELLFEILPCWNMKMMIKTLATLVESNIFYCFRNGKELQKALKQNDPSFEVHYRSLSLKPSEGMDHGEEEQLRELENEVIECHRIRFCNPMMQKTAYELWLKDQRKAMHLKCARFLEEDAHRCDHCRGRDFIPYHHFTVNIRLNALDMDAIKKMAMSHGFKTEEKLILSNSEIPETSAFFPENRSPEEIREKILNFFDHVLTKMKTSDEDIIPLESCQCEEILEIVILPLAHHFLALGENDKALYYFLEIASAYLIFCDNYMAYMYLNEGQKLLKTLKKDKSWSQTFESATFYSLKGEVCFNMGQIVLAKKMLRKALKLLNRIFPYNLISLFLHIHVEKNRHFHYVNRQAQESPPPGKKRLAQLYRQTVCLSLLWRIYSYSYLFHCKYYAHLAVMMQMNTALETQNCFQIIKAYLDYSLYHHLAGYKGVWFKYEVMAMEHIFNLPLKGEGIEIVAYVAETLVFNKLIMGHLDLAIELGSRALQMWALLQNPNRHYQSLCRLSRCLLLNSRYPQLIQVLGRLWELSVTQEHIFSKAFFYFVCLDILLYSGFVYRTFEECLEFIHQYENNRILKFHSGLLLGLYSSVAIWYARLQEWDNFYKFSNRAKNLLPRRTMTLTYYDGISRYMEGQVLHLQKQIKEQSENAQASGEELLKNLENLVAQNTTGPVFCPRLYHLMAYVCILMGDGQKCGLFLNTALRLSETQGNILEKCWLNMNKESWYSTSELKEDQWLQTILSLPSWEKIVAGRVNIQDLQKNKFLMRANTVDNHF

Structure (SMILES)	IC50 [1] [nM]	IC50 [2] [nM]	also measured
Nc1nc(Cl)cc(-c2nn(C(F)F)cc2Cc2ccccc2OCCN2CCO[C@H](CO)C2)n1	22.9	–	–
Nc1nc(Cl)cc(-c2nn(C(F)F)cc2Cc2ccccc2)n1	–	829	–
Nc1nc(Cl)cc(-c2nn(C(F)F)cc2Cc2ccccc2OCCN2CCOCC2)n1	1.9	–	–
CNC(=O)c1cccc(Cc2cn(C)nc2-c2cc(Cl)nc(N)n2)c1	–	1880	–
CC1(O)CCN(CCOc2ccccc2Cc2cn(C(F)F)nc2-c2cc(Cl)nc(N)n2)CC1	16.7	–	–
COC(=O)[C@H]1COCCN1CCOc1ccccc1Cc1cn(C(F)F)nc1-c1cc(Cl)nc(N)n1	2.5	–	–
Nc1nc(Cl)cc(-c2nn(C(F)F)cc2Cc2ccccc2OCCN2CCOC[C@H]2CO)n1	–	–	AUC [3]: 0.78 µM·h; Cmax [4]: 2500 nM; t1/2 [5]: 55.8 min; AUC [6]: 0.41 µM·h; Cmax [7]: 450 nM; Tmax [8]: 15 min; F [9]: 11%; AUC [10]: 5.46 µM·h; Cmax [11]: 6100 nM; Tmax [12]: 15 min; permeability [13]: 46.3 ×10⁻⁶ cm/s; logD [14]: 2.89; solubility kinetic [15]: 79 µg/mL (≈ 160 µM); Activity [16]: Non-Toxic
Cn1cc(Cc2ccc(Cl)cc2)c(-c2cc(Cl)nc(N)n2)n1	–	2580	–
COc1ccccc1Cc1cn(C)nc1-c1cc(Cl)nc(N)n1	–	67	–
Cn1cc(Cc2ccccc2Cl)c(-c2cc(Cl)nc(N)n2)n1	–	64	–
Nc1nc(Cl)cc(-c2nn(C(F)F)cc2Cc2ccccc2OCC(=O)N2CCOCC2)n1	37.7	24.2	Kd [17]: 4.7 nM
Nc1nc(Cl)cc(-c2nc3ccccn3c2Cc2ccccc2)n1	–	716	–
Nc1nc(Cl)cc(-c2nn(C(F)F)cc2Cc2ccccc2OCCN2CCO[C@@H](CO)C2)n1	34.8	–	–
Nc1nc(Cl)cc(-c2nn3ccccc3c2Cc2ccccc2)n1	–	112	–
CNC(=O)c1ccccc1Cc1cn(C)nc1-c1cc(Cl)nc(N)n1	–	1240	–
Cn1cc(Cc2cccc(Cl)c2)c(-c2cc(Cl)nc(N)n2)n1	–	389	–
Nc1nc(Cl)cc(-c2nn(C(F)F)cc2Cc2ccccc2OCCN2CCNC(=O)C2)n1	5.5	–	–
Nc1nc(Cl)cc(-c2nn(C(F)F)cc2Cc2ccccc2OCCN2CCS(=O)(=O)CC2)n1	14.6	–	–
